Measurements published in US20160025704A1, “METHODS FOR IDENTIFYING NEUROPROTECTIVE PKC ACTIVATORS” (priority 2013, published 2016).

Tests used:
5XFAD mice = test: Synaptic loss in hippocampal CA1 area of 5XFAD mice; format: in vivo
Method: Protocol: DCPLA (20 mg/m^2, tail vein injection) was administered to 2-month old 5XFAD mice twice a week. At five months old, hippocampal slices from the brains of the mice were processed for immunohistochemistry and confocal microscopy analysis. Results are shown for analysis of spinophilin density (A, B), synaptophysin density (A, D) not caused by axonal bouton (synaptophysin granules) (C) and neuronal loss (E, F). […] Non-treated groups (wild-type and transgenic (Tg) mice) received the same vehicle volumes, mechanism of delivery, and frequency of administration as the treated groups.

[1] = clinical trials, Varterasian et al. 2000; cited from earlier work
monomeric Aβ(1-42) = test: Aβ peptide degradation by SH+hNEP cells; format: cell-based, human; settings: 1 nM, 2.5 μg monomeric Aβ(1-42), 4 hours
Method: Protocol: Intact SH+hNEP cells were incubated with 2.5 μg of monomeric Aβ(1-42) for 4 hours in the absence or presence of bryostatin (Bryo, 1 nM). Some cells were cotreated with phosphoramidon (PA, 10 μM, a specific neprilysin inhibitor), Ro 32-0432 (Ro, 2 μM, a PKC inhibitor), or PA+Ro in the presence of bryostatin (1 nM) for 4 hours. Aβ peptide was then precipitated from the reactions by 20% trichloroacetic acid and immunoblotted with use of Aβ peptide 1-16 antibody (6E10). Arrow indicates the size of monomeric Aβ peptide (FIG. 18), which is around 4 kDa. Densitometry measurements of developed protein bands on Western blots were made and assigned as relative expression change (Mean+SEM of three independent experiments, **P<0.01, Bryo compared with untreated; #P<0.01, PA, Ro, or PA+Ro compared with Bryo.).

cerebral ischemia rats [2] = test: Retention of spatial learning and memory after cerebral ischemia (training before ischemia); format: in vivo; settings: 15 μg/m^2 tail vein, 2 doses/week for 10 doses; second probe test 2 weeks after last dose (FIG. 22)
Method: Protocol: An initial evaluation of the test rats was undertaken to observe their spatial learning (2 trials/day for 6 days) and memory (a probe test of 1 min, 24 hours after the last trial). Cerebral ischemia was induced 1 day after the probe test, followed by bryostatin-1 (15 μg/m^2) administration through a tail vein (2 doses/week, for 10 doses), starting 24 hours after the end of the ischemic (2-VO)/hypoxic event. A second probe test was performed 2 weeks after the last bryostatin-1 dose. Results are shown in A for the spatial water maze performance of the rats over training trials (2 trials/day for 6 days) before the ischemia/treatment (means±SEM.; trials: F11,383=40.483, P<0.001; groups: F3,383=0.315, P>0.05). Results of the probe test after the training trials before the ischemia and/or treatment are shown in B-E (Quadrant 4 was the target quadrant). Results are shown for the target quadrant ratios before (pre-Isch) and after (post-Isch) the ischemia and/or treatment in F. Results are shown in G for the latency of the first crossing the target location before (pre-Isch) and after (post-Isch) the ischemia and/or treatment. There were eight rats/group (Bry—bryostatin-1; Isch.—cerebral ischemia) (*, P<0.05. NS: P>0.05).

Primary human neurons = test: Synaptogenicity in primary human neurons; format: cell-based; settings: 0.27 nM
Method: Protocol: Primary human neurons were treated with either DCPLA-methyl ester (100 nM) or bryostatin-1 (0.27 nM).

[3] = test system: neurons in the CA1 hippocampal area; test: Apoptotic cell death (TUNEL) in hippocampal CA1 area after ischemic (2-VO)/hypoxic event; format: in vivo; settings: 15 μg/m^2 tail vein, 2 doses/week for 10 doses, starting 24 hours after ischemic/hypoxic event; staining 9 day after last dose
Method: Protocol: Bryostatin-1 (15 μg/m^2) was administered through a tail vein (2 doses/week, for 10 doses), starting 24 hours after the end of the ischemic (2-VO)/hypoxic event. Staining for apoptotic cell death in the hippocampal CA1 area was performed 9 day after the last bryostatin-1 dose. […] (C) Quantification of TUNEL staining in stratum radiatum (n=3 animals; n=30 confocal images). Con=control; Bry=bryostatin-1; Isch=cerebral ischemia; ***, P<0.001.

cerebral ischemia rats [4] = test: Spatial learning, memory and visible platform test after cerebral ischemia; format: in vivo; settings: 15 μg/m2 tail vein
Method: Protocol: Bryostatin-1 (15 μg/m2) was administered through a tail vein (2 doses/week, for 10 doses), starting 24 hours after the end of the ischemic (2-VO)/hypoxic event. The ability of the rats in spatial learning (2 trials/day for 4 days) and memory (a probe test of 1 min, 24 hours after the last trial) was evaluated, with the first training started 9 days after the last dose of bryostatin-1. […] (Bry—bryostatin-1; Isch—cerebral ischemia; NS—not significant) (*, P<0.05).

sAPP-α = sAPP-α secretion in control cell lines; format: cell-based, human; settings: 0.1 nM
Tg2576 mice = test: Dendritic spines and synapses in hippocampal CA1 area of Tg2576 mice; format: in vivo
[5] = postischemic/hypoxic treatment; Sun and Alkon 2008; cited from earlier work
[6] = test system: healthy brown Norway rats; test: Mushroom spine formation in healthy rats after water maze training; format: in vivo; settings: given during water maze training
Description: Protocol: Non-diseased, healthy brown Norway rats (at 4-5 months old) were used in this study. Bryostatin enhanced the formation of mushroom spines in healthy rats after water maze training as shown in a-e. Memory retention after water maze training (4 swims per days for 5 days) increased the number of mushroom dendritic spine and synapses with (e) perforated postsynaptic densities (PSDs), but not with macular PSDs (d). […] Nv=naîve controls; Sw=swim controls; Mz=water maze treatment; and Mz/Br=water maze treatment plus bryostatin treatment.

[7] = 30 μg/kg intraperitoneal twice a week from 2 months old, analysis at five months

CCCCCC1CC1CC1CC1CCCCCCCC(=O)O (centres unmarked) [DCPLA, 8-[2-(2-pentylcyclopropyl)methyl]-cyclopropaneoctanoic acid]
mushroom spine shape dendritic spines and synapses (5XFAD mice; 20 mg/m^2 tail vein twice a week from 2 months old, analysis at five months): protected the decrease in mushroom spine shape dendritic spines and synapses
synaptic loss in hippocampal CA1 area (5XFAD mice; 5XFAD mice at 5 months old (FIG. 20)): prevents synaptic loss

CCC/C=C/C=C/C(=O)O[C@H]1/C(=C/C(=O)OC)C[C@H]2C[C@H]([C@@H](C)O)OC(=O)C[C@H](O)C[C@@H]3C[C@H](OC(C)=O)C(C)(C)[C@](O)(C[C@@H]4C/C(=C/C(=O)OC)C[C@H](/C=C/C(C)(C)[C@]1(O)O2)O4)O3 [Bryostatin, bryostatin-1]
tumor growth promotion [1]: does not promote tumor growth
Aβ peptide degradation (monomeric Aβ(1-42)): induces Aβ peptide degradation through neprilysin activation
learning experience and memory after cerebral ischemia (cerebral ischemia rats [2]): rescues learning experience and memory
co-localized staining of PSD-95 and synaptophysin in puncta (number of synapses) (Primary human neurons; 30 days): an increase in co-localized staining of PSD-95 and synaptophysin in puncta
survival, neuritic branching and connections (Primary human neurons; 40 days): improved survival with increased neuritic branching and connections
apoptotic cell death in neurons in the CA1 hippocampal area [3]: prevents apoptotic cell death
sensorimotor ability (visible platform test) (cerebral ischemia rats [4]; 2 doses/week for 10 doses (FIG. 23)): but not sensorimotor ability
learning experience and memory after cerebral ischemia (cerebral ischemia rats [4]; 2 doses/week for 10 doses, training started 9 days after last dose (FIG. 23)): rescues learning experience and memory
sAPP-α secretion in two control cell lines (sAPP-α): effective in enhancing secretion in two control cell lines, although to a lesser extent than in the AD cell line
mushroom spine-shape dendritic spines (Tg2576 mice; [7]): prevented decreases in mushroom spine-shape dendritic spines
synapses (electron microscopy) (Tg2576 mice; [7]): prevented decreases
loss of postsynaptic dendritic spines and synapses in the hippocampal CA1 area (Tg2576 mice; Tg2576 mice at 5 months old (FIG. 19)): protects against the loss of postsynaptic dendritic spines and synapses
ischemia-induced deficits in synaptogenesis, neurotrophic activity, and spatial learning and memory [5]: effectively rescued ischemia-induced deficits in synaptogenesis, neurotrophic activity, and spatial learning and memory
mushroom spines with macular PSDs [6]: significantly increased
mushroom spines with perforated PSDs [6]: enhanced
